Our source for the IC50 values is US12692261B2, “Substituted heterocyclic compounds and therapeutic uses thereof” (Bayer Aktiengesellschaft, priority 2020, dated 2026).

For assay [1], the target named is T1, full-length human CSNK1A1 (Homo sapiens, UniProt P48729).
T1 construct: N-terminal Glutathion-S-Transferase (GST) and full-length human CSNK1A1; purchased Life Technologies PV4174; host or cells: baculovirus infected insect cells
The experiment in a line: CSNK1A1 High ATP Assay (ADP-Glo, 1 mM ATP).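 Further: 30 min kinase reaction at 22 °C with 100 µM peptide substrate.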 In kind it is biochemical. The settings on record: Table 3, read-out: CSNK1A1 high ATP assay IC50 [mol/l] (median). The procedure, abridged:
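Kinase activity taken as ADP generated, quantified by ADP-Glo luminescence after 1 h ATP depletion and 1 h detection at 22 °C. Enzyme is GST–full-length human CSNK1A1 (insect cell-expressed), pre-bound to compound for 15 min, with phosphopeptide substrate and 1 mM ATP.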
In general terms: ADP-Glo turns the ADP formed in a reaction into a luminescent signal.

In assay [2] the target is T1, full-length human CSNK1A1. Briefly: CSNK1A1 Assay 2 (ADP-Glo, 1 μM ATP, substrate biotin-Ahx-KRRRAL-pS-VASLPGL). In kind it is biochemical. The settings on record: Table 3, read-out: CSNK1A1 Assay 2 IC50 [mol/l] (median). The procedure, abridged: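 Activity read as ADP generated (ADP-Glo luciferase luminescence, 1 h detection steps at 22 °C). Enzyme was insect-cell-expressed GST–full-length human CSNK1A1, compound-preincubated 15 min before reaction with phosphopeptide substrate and 1 μM ATP in 50 mM HEPES pH 7.5, 10 mM MgCl2.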

T1 sequence (P48729 whole entry): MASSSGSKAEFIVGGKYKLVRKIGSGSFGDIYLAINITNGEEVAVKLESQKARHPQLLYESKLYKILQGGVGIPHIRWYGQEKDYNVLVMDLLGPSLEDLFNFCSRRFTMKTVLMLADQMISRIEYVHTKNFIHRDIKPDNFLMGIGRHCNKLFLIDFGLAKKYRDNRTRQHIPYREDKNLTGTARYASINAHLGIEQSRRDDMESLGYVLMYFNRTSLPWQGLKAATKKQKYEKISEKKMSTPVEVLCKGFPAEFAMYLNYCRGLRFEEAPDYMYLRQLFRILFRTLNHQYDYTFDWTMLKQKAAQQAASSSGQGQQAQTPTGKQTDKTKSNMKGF

On to `O=C(Nc1cc(-c2[nH]c3c(Cl)ccnc3c2-c2ccccn2)ccn1)C(CC(F)F)c1ccc(F)cc1` (racemic) [Example 49, (2RS)—N-{4-[7-chloro-3-(pyridin-2-yl)-1H-pyrrolo[3,2-b]pyridin-2-yl]pyridin-2-yl}-4,4-difluoro-2-(4-fluorophenyl)butanamide], for which the IC50 in assay [1] and in assay [2] was 3.64 nM in each case.

Regarding `O=C(Nc1cc(-c2[nH]c3c(OCC(F)(F)F)ncnc3c2-c2ccccn2)ccn1)C(CC(F)(F)F)c1ccc(F)cc1` (racemic) [Example 125, (2RS)-4,4,4-trifluoro-2-(4-fluorophenyl)-N-{4-[7-(pyridin-2-yl)-4-(2,2,2-trifluoroethoxy)-5H-pyrrolo[3,2-d]pyrimidin-6-yl]pyridin-2-yl}butanamide], the IC50 in assay [1] amounted to 46.1 nM; in assay [2] it was 14.8 nM.

On to `O=C(Nc1cc(-c2[nH]c3cccnc3c2-c2ccccc2)ccn1)C(CC(F)F)c1ccc(F)cc1` (racemic) [Example 22, 4,4-difluoro-2-(4-fluorophenyl)-N-[4-(3-phenyl-1H-pyrrolo[3,2-b]pyridin-2-yl)pyridin-2-yl]butanamide], for which the IC50 in assay [1] is 90.4 nM; in assay [2], 2.37 nM.

`O=C(Nc1cc(-c2[nH]c3c(OCC4CC4)ncnc3c2-c2ccccn2)ccn1)C(CC(F)F)c1ccc(F)cc1` (racemic) [Example 128, (2RS)—N-{4-[4-(cyclopropylmethoxy)-7-(pyridin-2-yl)-5H-pyrrolo[3,2-d]pyrimidin-6-yl]pyridin-2-yl}-4,4-difluoro-2-(4-fluorophenyl)butanamide]: the IC50 in assay [1] came to 47.4 nM; in assay [2], 8.03 nM.

As for `O=C(Nc1cc(-c2[nH]c3ccc(F)nc3c2-c2cc(F)ccn2)ccn1)C(CC(F)F)c1ccc(F)cc1` (racemic) [Example 95, (2RS)-4,4-difluoro-N-{4-[5-fluoro-3-(4-fluoropyridin-2-yl)-1H-pyrrolo[3,2-b]pyridin-2-yl]pyridin-2-yl}-2-(4-fluorophenyl)butanamide], the IC50 in assay [1] and in assay [2] was 5.62 nM in each case.

Consider `O=C(Nc1cc(-c2[nH]c3c(OCC(F)F)cc(F)nc3c2-c2ccccn2)ccn1)C(CC(F)F)c1ccc(F)cc1` (single isomer, unassigned) [Example 30, (2R or S)—N-{4-[7-(2,2-difluoroethoxy)-5-fluoro-3-(pyridin-2-yl)-1H-pyrrolo[3,2-b]pyridin-2-yl]pyridin-2-yl}-4,4-difluoro-2-(4-fluorophenyl)butanamide], for which the IC50 in assay [1] and in assay [2] was 8.84 nM in each case.

Consider `COc1ncnc2c(-c3ccccn3)c(-c3ccnc(NC(=O)C(CC(F)F)c4ccc(F)cc4)c3)[nH]c12` (centres unmarked) [Example 113, 4,4-difluoro-2-(4-fluorophenyl)-N-{4-[4-methoxy-7-(pyridin-2-yl)-5H-pyrrolo[3,2-d]pyrimidin-6-yl]pyridin-2-yl}butanamide], for which the IC50 in assay [1] was 157 nM; in assay [2], 3.74 nM.

As to `O=C(Nc1cc(-c2[nH]c3ccc(F)nc3c2-c2cc(F)ccn2)ccn1)C(CC(F)F)c1ccc(F)cc1` (single isomer, unassigned) [Example 97, (2R or S)-4,4-difluoro-N-{4-[5-fluoro-3-(4-fluoropyridin-2-yl)-1H-pyrrolo[3,2-b]pyridin-2-yl]pyridin-2-yl}-2-(4-fluorophenyl)butanamide], the IC50 in assay [1] and in assay [2] was 36 nM in each case.

Consider `Cc1cc(F)nc2c(-c3ccccn3)c(-c3ccnc(NC(=O)C(CC(F)F)c4ccc(F)cc4)c3)[nH]c12` (racemic) [Example 36, (rac)-4,4-difluoro-N-{4-[5-fluoro-7-methyl-3-(pyridin-2-yl)-1H-pyrrolo[3,2-b]pyridin-2-yl]pyridin-2-yl}-2-(4-fluorophenyl)butanamide], for which the IC50 in assay [1] and in assay [2] was 21.4 nM throughout.

`O=C(Nc1cc(-c2[nH]c3cc(F)cnc3c2-c2ccccn2)ccn1)C(CC(F)F)c1ccc(F)cc1` (single isomer, unassigned; (+)) [Example 17, (+)-4,4-difluoro-2-(4-fluorophenyl)-N-{4-[6-fluoro-3-(pyridin-2-yl)-1H-pyrrolo[3,2-b]pyridin-2-yl]pyridin-2-yl}butanamide]: the IC50 in assay [1] stood at 5.48 nM; in assay [2] it was 1.7 nM.

Consider `O=C(Nc1cc(-c2[nH]c3cc(F)cnc3c2-c2ccccn2)ccn1)C(CC(F)F)c1ccc(F)cc1` (single isomer, unassigned; (-)) [Example 18, (−)-4,4-difluoro-2-(4-fluorophenyl)-N-{4-[6-fluoro-3-(pyridin-2-yl)-1H-pyrrolo[3,2-b]pyridin-2-yl]pyridin-2-yl}butanamide], for which the IC50 in assay [1] was found to be 542 nM; in assay [2], 16.2 nM.

For `Cc1cnc2c(-c3ccccn3)c(-c3ccnc(NC(=O)C(CC(F)F)c4ccc(F)cc4)c3)[nH]c2c1` (single isomer, unassigned) [Example 8, 4,4-difluoro-2-(4-fluorophenyl)-N-{4-[6-methyl-3-(pyridin-2-yl)-1H-pyrrolo[3,2-b]pyridin-2-yl]pyridin-2-yl}butanamide], the figures for the IC50 in assay [1] and in assay [2] were 8.57 nM and 3.01 nM, respectively.

For `COc1cnc2c(-c3ccccn3)c(-c3ccnc(NC(=O)C(CC(F)F)c4ccc(F)cc4)c3)[nH]c2n1` (single isomer, unassigned) [Example 102, 4,4-difluoro-2-(4-fluorophenyl)-N-{4-[3-methoxy-7-(pyridin-2-yl)-5H-pyrrolo[2,3-b]pyrazin-6-yl]pyridin-2-yl}butanamide], the IC50 in assay [1] and in assay [2] was 31.1 nM in each case.

As to `O=C(Nc1cc(-c2[nH]c3ccc(F)nc3c2-c2ccc(F)cn2)ccn1)C(CC(F)F)c1ccc(F)cc1` (single isomer, unassigned; (+)) [Example 109, (+)-4,4-difluoro-N-{4-[5-fluoro-3-(5-fluoropyridin-2-yl)-1H-pyrrolo[3,2-b]pyridin-2-yl]pyridin-2-yl}-2-(4-fluorophenyl)butanamide], the IC50 in assay [1] and in assay [2] was 3.14 nM in each case.

Turning to `O=C(Nc1cc(-c2[nH]c3cccnc3c2-c2ccccn2)ccn1)C(CC(F)F)c1ccc(F)cc1` (single isomer, unassigned; (+)) [Example 11, (+)-4,4-difluoro-2-(4-fluorophenyl)-N-{4-[3-(pyridin-2-yl)-1H-pyrrolo[3,2-b]pyridin-2-yl]pyridin-2-yl}butanamide], the results for the IC50 in assay [1] and in assay [2] were 5.35 nM and 1.2 nM, respectively.

On to `O=C(Nc1cc(-c2[nH]c3c(C4CCCO4)cc(F)nc3c2-c2ccccn2)ccn1)C(CC(F)F)c1ccc(F)cc1` (single isomer, unassigned) [Example 118, (2R or S)-4,4-difluoro-N-(4-{5-fluoro-7-[(2R or S)-oxolan-2-yl]-3-(pyridin-2-yl)-1H-pyrrolo[3,2-b]pyridin-2-yl}pyridin-2-yl)-2-(4-fluorophenyl)butanamide], for which the IC50 in assay [1] is 6660 nM; in assay [2], 66.9 nM.

For the molecule `O=C(Nc1cc(-c2[nH]c3cccnc3c2-c2cccc(F)n2)ccn1)C(CC(F)F)c1ccc(F)cc1` (single isomer, unassigned; (+)) [Example 27, (+)-4,4-difluoro-2-(4-fluorophenyl)-N-{4-[3-(6-fluoropyridin-2-yl)-1H-pyrrolo[3,2-b]pyridin-2-yl]pyridin-2-yl}butanamide], the IC50 in assay [1] and in assay [2] was 1.55 nM each time.

In the case of `Cc1ccc2[nH]c(-c3ccnc(NC(=O)C(CC(F)F)c4ccc(F)cc4)c3)c(-c3ccccn3)c2n1` (single isomer, unassigned) [Example 6, 4,4-difluoro-2-(4-fluorophenyl)-N-{4-[5-methyl-3-(pyridin-2-yl)-1H-pyrrolo[3,2-b]pyridin-2-yl]pyridin-2-yl}butanamide], the figures for the IC50 in assay [1] and in assay [2] were 2990 nM and 68.2 nM, respectively.

Turning to `CC(C)(O)c1cc(F)nc2c(-c3ccccn3)c(-c3ccnc(NC(=O)C(CC(F)F)c4ccc(F)cc4)c3)[nH]c12` (single isomer, unassigned) [Example 99, (2R or S)-4,4-difluoro-N-{4-[5-fluoro-7-(2-hydroxypropan-2-yl)-3-(pyridin-2-yl)-1H-pyrrolo[3,2-b]pyridin-2-yl]pyridin-2-yl}-2-(4-fluorophenyl)butanamide], the IC50 in assay [1] and in assay [2] was 3.55 nM throughout.

As for `O=C(Nc1cc(-c2[nH]c3c(CC4CC4)cc(F)nc3c2-c2ccccn2)ccn1)C(CC(F)F)c1ccc(F)cc1` (single isomer, unassigned) [Example 47, (2R or S)—N-{4-[7-(cyclopropylmethyl)-5-fluoro-3-(pyridin-2-yl)-1H-pyrrolo[3,2-b]pyridin-2-yl]pyridin-2-yl}-4,4-difluoro-2-(4-fluorophenyl)butanamide], the IC50 in assay [1] and in assay [2] was 31.6 nM throughout.

Take `O=C(Nc1cc(-c2[nH]c3ccc(F)nc3c2-c2ccccn2)ccn1)[C@H](CC(F)F)c1ccc(F)cc1` (single isomer, unassigned) [Example 3]: the values for the IC50 in assay [1] and in assay [2] were 849 nM and 9.21 nM, respectively.

On to `COc1cc(F)nc2c(-c3ccccn3)c(-c3ccnc(NC(=O)C(CC(F)F)c4ccc(F)cc4)c3)[nH]c12` (single isomer, unassigned; (+)) [Example 40, (+)-4,4-difluoro-N-{4-[5-fluoro-7-methoxy-3-(pyridin-2-yl)-1H-pyrrolo[3,2-b]pyridin-2-yl]pyridin-2-yl}-2-(4-fluorophenyl)butanamide], for which the IC50 in assay [1] and in assay [2] was 3.69 nM each time.
